Several values for one entry are separate records, joined by “and”; a condition that tells them apart may be missing. Equal values may be shown once.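 These data come from cells grown in 96-well plates and exposed to compound for 48 hours at five concentrations. The concentration for 50% growth inhibition is given as GI50. At the TGI there is no net growth.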

For this experiment, the system named is MDA-MB-468 breast. Briefly: NCI anticancer screen, dose series, 48 h.
On to `CCCCN(CCCC)Cc1cc(Nc2ccnc3cc(Cl)ccc23)ccc1O`, for which the GI50 is 4.94 µM and the TGI is more than 100 µM.
Consider `COc1cccc(-c2nc3cc(NC(=O)c4ccc(Cl)c(C#N)c4)ccc3o2)c1`, for which the GI50 was 1.6 µM and the TGI was 3.44 µM.
Consider `O=C(O)c1nc(NCc2nc3cc(Cl)ccc3o2)n[nH]1`, for which the GI50 is more than 100 µM and the TGI was more than 100 µM.
On to `Cn1ncc(-c2ccc3c(=O)[nH]nc(CN)c3c2)c1-c1c(F)c(Cl)cc(OC2CC2)c1C#N`, for which the GI50 was 11.7 µM and 10.2 µM; the TGI is 24.8 µM and 22.5 µM.
Regarding `Cc1ccc2cnc(N)c(C#Cc3cc(C(=O)Nc4ccc(CN5CCN(C)CC5)c(C(F)(F)F)c4)cnc3C)c2c1`, the GI50 is 0.932 µM and the TGI worked out at 2.08 µM.
In the case of `COc1cc(C)ccc1C(=O)c1ccc(C)cc1OC`, the GI50 is 1.39 µM and the TGI was more than 100 µM.
`CCCN1C(=O)NC(=O)C(CC)(N2C(=O)c3c(F)c(F)c(F)c(F)c3C2=O)C1=O` (configuration not stated): the GI50 is 1.54 µM and the TGI was found to be 3.93 µM.
In the case of `CCN1C(=O)N(CC)C2C1NN=c1s/c(=C\c3ccc(Cl)cc3Cl)c(=O)n12` (configuration not stated), the GI50 was 0.0417 µM and the TGI was determined as 19.4 µM.
Consider `CC(CO)Nc1cc(-c2[nH]c3cccnc3c2-c2ccc(F)cc2)ccn1` (configuration not stated), for which the GI50 was 6.74 µM and the TGI is more than 25 µM.
In the same order, the values of `CC1=C([Se]CC(OC(=O)CC[Se]c2ccccc2)C(=O)NC(C)(C)C)C(=O)c2ccccc2C1=O` (configuration not stated) are 0.509 µM and 2.06 µM.
In the same order, the values of `CN1CCC(CNc2cc(C3(C(=O)Nc4cc(C(=O)Nc5ccc(Cl)c(C(F)(F)F)c5)ccc4F)CC3)ncn2)CC1` are 1.83 µM and 4.41 µM.
The like results for `CCOc1ccccc1CCN=C1NC(=O)/C(=C/c2ccc3ncccc3c2)S1` were, in that order, 1.16 µM and more than 16.9 µM.
Regarding `CCOC(=O)Oc1c(OC)cc(C(=O)c2ccc(OC)c(O)c2OC)cc1OC`, the GI50 is 2.65 µM and the TGI is more than 100 µM.
Turning to `O=C(Nc1cccc(Cl)c1)Nn1cnnc1`, the GI50 was more than 50 µM and the TGI was more than 50 µM.
On to `COc1cc(/C=C/C(=O)/C=C/c2cc(OC)c3c(c2)OCO3)cc2c1OCO2`, for which the GI50 was 3.46 µM and the TGI is 28.3 µM.
The like results for `COc1ccc2c(c1)C(=O)/C(=C/c1cccc(OCC(=O)c3ccccc3)c1)CC2` were, in that order, 2.68 µM and 74.2 µM.
As for `O=C(NCC1CC1)c1ccc(-c2cccc(C(=O)NC3CC3)c2)cc1`, the GI50 was more than 25 µM and the TGI is more than 25 µM.
For the compound `N#C[Se]Cc1cc(-c2ccccc2)n(-c2ccc(S(N)(=O)=O)cc2)n1`, the GI50 was 1.59 µM and the TGI was found to be 3.47 µM.
Consider `C=C1CCC2C3(C)COC(C)(C)OC3CCC2(C)C1C/C=C1/C(=O)OCC1OC(C)=O` (configuration not stated), for which the GI50 was 1.44 µM and the TGI turned out to be 3.06 µM.
The like results for `O=S(=O)(Nc1ccc(Br)cc1)c1ccc(-c2cnc(C3CC3)o2)cc1` were, in that order, 1.13 µM and 7.28 µM.
As to `CCc1c2c(nc3ccc(OCc4ccc(B(O)O)cc4)cc13)-c1cc3c(c(=O)n1C2)COC(=O)[C@]3(O)CC`, the GI50 was less than 0.01 µM and the TGI was 0.0355 µM.
Take `CC1=C2C(=C[C@@](C)(CO)[C@@H]2OC(=O)N(C)CCN(C)C(=O)OC(C)(C)C)C(=O)[C@](C)(O)C12CC2`: the GI50 is 1.1 µM and the TGI worked out at 3.8 µM.
On to `O=C1/C(=C/c2ccc([N+](=O)[O-])cc2)CN(C(=O)CCN2CCC(=NO)CC2)C/C1=C\c1ccc([N+](=O)[O-])cc1`, for which the GI50 was 1.06 µM and the TGI was 3.61 µM.
In the same order, the values of `O=C1OCC2=C1C(c1cccc(F)c1)c1cc3c(cc1N2CCO)OCO3` (configuration not stated) are 1.12 µM and more than 50 µM.
On to `CCSC1=NC2C(N(CC)C(=O)N2CC)N1/N=C/C=C/c1ccccc1[N+](=O)[O-]` (configuration not stated), for which the GI50 is 0.1 µM.
On to `Cc1c2cnccc2c(C)c2c1c1cc(C#N)ccc1n2C`, for which the GI50 was 0.228 µM and the TGI came to 0.741 µM.
The like results for `Nc1nc2ccc(-c3nc4ccc5[nH]ncc5c4c4c3CCC4)cc2s1` were, in that order, 0.182 µM and 4.36 µM.
Consider `Nc1ncn([C@@H]2S[C@H](CO)[C@@H](O)[C@@H]2F)c(=O)n1`, for which the GI50 was more than 100 µM and the TGI is more than 100 µM.
Turning to `c1ccc(-c2nc(-c3ccccn3)nc(-c3ccccn3)n2)nc1`, the GI50 was 30.4 µM and the TGI is 99.1 µM.

The values are drawn from PubChem BioAssay (NCI).
